Patent publication US20240024403A1, “Compositions and Methods for Managing Weight” (Unigen, Inc., priority 2012, published 2024)

Experiment: High fat diet induced obesity (DIO) mouse model
Assay type: in vivo, C57CL/6J mice
Details: DIO mice
Procedure: C57CL/6J mice aged 4-6 weeks (Korea Research Institute of Bioscience & Biotechnology, Ohchang, Korea) were housed in Polycarbonate cages (five mice per cage) in a room with a 12 hr:12 hr light-dark cycle and an ambient temperature of 24° C. All the mice were fed a commercial chow diet for 1 week after arrival in the animal facility. Mice were then divided into normal and obesity groups and fed with normal diet (ND) and high fat diets (HFD) respectively. The HFD group was divided into multiple treatment groups: a high fat diet vehicle group (HFD), an orlistat (purchased as OTC drug Alli®) positive control treatment group (ORI, 40 mg/kg of animal weight, 2 times/day) and optionally a sibutramine positive control treatment group (10 mg/kg, 1 time/day). The HFD contained 340 g of fat/kg of HFD (310 g lard plus 30 g soybean oil; Harlan Laboratories, USA). The HFD was formulated to provide 60% of the total energy generated by the diet from fat by replacing carbohydrate energy with lard and soybean oil, whereas the normal diet (ND) group was fed a diet providing only 18% of the total diet energy from fat(Harlan Laboratories, USA).
Body weight was measured once each week and feed intake was measured twice per week. At the end of the experimental period, following a 12 hr. fasting period, the animals were anesthetized with ether, and blood was drawn from the abdominal vein. Liver and kidney and adipose tissues (epididymal, retroperitoneal, perirenal adipose tissues) were removed from each animal, rinsed with physiological saline, and weighed. Serum concentrations of glucose, total cholesterol, triglycerides, and LDL-cholesterol were determined using automatic analyzer (INTEGRA 400, Roche, Germany). Statistical significance of test results was measured using the Student's t-test.

[1] = G1-G4 1000 mg/kg oral gavage two times per day
[2] = G1-G4 1000 mg/kg oral gavage two times per day, in g (unit assumed)
[3] = G1 = 800 mg/kg orally twice a day
[4] = G1 = 1,100 mg/kg orally twice a day
[5] = G1 = 1,200 mg/kg orally twice a day
[6] = Mean score, G1 1,300 mg/kg twice a day
[7] = Mean, Composition 11 (G1) 1,300 mg/kg twice a day, oral
[8] = Mean, G1 1,300 mg/kg twice a day

Compound: CCCCCCCCCCC[C@@H](C[C@@H]1OC(=O)[C@H]1CCCCCC)OC(=O)[C@H](CC(C)C)NC=O [ORI, orlistat]
- Food Intake [1]: 2.675 g/day
- Weight Gain [1]: 0.015 g/day
- Absolute Organ Weight, Epididymal Fat [2]: 1.998
- Absolute Organ Weight, Liver [2]: 1.184
- ALP [3]: 177.35 U/L
- ALT [3]: 23.03 U/L
- AST [3]: 51.40 U/L
- Absolute Organ Weight: Epididymal fat [3]: 2.03 g
- Absolute Organ Weight: Liver [3]: 1.19 g
- Absolute Organ Weight: PeriRenal fat [3]: 0.29 g
- Absolute Organ Weight: Retroperitoneal fat [3]: 0.5 g
- Body Weight Gain [3]: -0.004 g/day
- Food Intake [3]: 3.147 g/day
- LDL-C [3]: 4.28 mg/dL
- T-chol [3]: 155.83 mg/dL
- TG [3]: 88.33 mg/dL
- TP [3]: 5.08 g/dL
- ALT [4]: 23.03 U/L
- AST [4]: 51.40 U/L
- Absolute Organ Weight: Epididymal Fat [4]: 2.03 g
- Absolute Organ Weight: Liver [4]: 1.19 g
- Absolute Organ Weight: PeriRenal Fat [4]: 0.29 g
- Absolute Organ Weight: Retroperitoneal Fat [4]: 0.5 g
- Body Weight Gain [4]: -0.004 g/day
- Food Intake [4]: 3.147 g/day
- LDL-C [4]: 4.28 mg/dL
- T-chol [4]: 155.83 mg/dL
- TG [4]: 88.33 mg/dL
- TP [4]: 5.08 g/dL
- ALT [5]: 23.03 U/L
- AST [5]: 51.40 U/L
- Absolute Organ Weight: Epididymal Fat [5]: 2.03 g
- Absolute Organ Weight: Liver [5]: 1.19 g
- Absolute Organ Weight: PeriRenal Fat [5]: 0.29 g
- Absolute Organ Weight: Retroperitoneal Fat [5]: 0.5 g
- Food Intake [5]: 3.147 g/day
- LDL-C [5]: 4.28 mg/dL
- T-chol [5]: 155.83 mg/dL
- TG [5]: 88.33 mg/dL
- TP [5]: 5.08 g/dL
- Weight Gain [5]: -0.004 g/day
- Liver pathology: Hepatocellular ballooning (0-2) [6]: 0.33
- Liver pathology: Lobular Inflammation (0-3) [6]: 1.50
- Liver pathology: Steatosis (0-3) [6]: 0.33
- Body Weight Gain [7]: -0.004 g/day
- Food Intake [7]: 3.147 g/day
- ALP [8]: 177.35 U/L
- ALT [8]: 23.03 U/L
- AST [8]: 51.40 U/L
- Absolute Organ Weight: Epididymal Fat [8]: 2.03 g
- Absolute Organ Weight: Liver [8]: 1.19 g
- Absolute Organ Weight: PeriRenal Fat [8]: 0.29 g
- Absolute Organ Weight: Retroperitoneal Fat [8]: 0.5 g
- HDL-C [8]: 75.57 mg/dL
- LDL-C [8]: 4.28 mg/dL
- TP [8]: 5.08 g/dL
- FER (Food efficiency ratio) (Mean, body weight gain (g/day)/food intake (g/day), G1 1,300 mg/kg twice a day): −0.001
- Liver pathology: NSAH (sum) (Mean, sum of scores, G1 1,300 mg/kg twice a day): 2.17
- Absolute organ weight: Total Fat (Mean, sum of the three fat pads, G1 1,300 mg/kg twice a day): 2.82 g
- FER (Food efficiency ratio) (ORI group, mean, Table 136): 0.000
- Food Intake (ORI group, mean, Table 136): 3.195 g/day
- Weight Gain (ORI group, mean, Table 136): 0.000 g/day
- ALT (ORI group, mean, Table 137): 21.83 U/L
- AST (ORI group, mean, Table 137): 65.65 U/L
